Assay results reported in ChEMBL document CHEMBL2203152, “Systematic in vivo screening of a series of 1-propyl-4-arylpiperidines against dopaminergic and serotonergic properties in rat brain: a scaffold-jumping approach” (J Med Chem, 2012).
The source made the active and inactive calls. The calls are words filed in the database; no cut-off is given here.

Tests used:
Rattus norvegicus [1] = assay: Decrease in 5-HIAA level in Sprague-Dawley rat striatum at 25 umol/kg, sc by HPLC analysis relative to saline-treated control; type: functional; set-up: scale not given: the % may be the effect or the level left
Rattus norvegicus [2] = assay: Increase in DOPAC level in Sprague-Dawley rat striatum at 25 umol/kg, sc by HPLC analysis relative to saline-treated control; type: functional
Rattus norvegicus [3] = assay: Increase in DOPAC level in sc dosed Sprague-Dawley rat striatum by HPLC analysis; type: functional
Rattus norvegicus [4] = assay: Reduction in spontaneous locomotor activity in Sprague-Dawley rat at 25 umol/kg, sc measured after 15 to 60 mins relative to saline-treated control; type: functional; set-up: scale not given: the % may be the effect or the level left
Rattus norvegicus [5] = assay: Increase in DOPAC level in Sprague-Dawley rat striatum at 5.8 umol/kg, sc by HPLC analysis relative to saline-treated control; type: functional
Rattus norvegicus [6] = assay: Reduction in spontaneous locomotor activity in Sprague-Dawley rat at 5.8 umol/kg, sc measured after 15 to 60 mins relative to saline-treated control; type: functional; set-up: scale not given: the % may be the effect or the level left
Rattus norvegicus [7] = assay: Decrease in 5-HIAA level in Sprague-Dawley rat striatum at 5.8 umol/kg, sc by HPLC analysis relative to saline-treated control; type: functional; set-up: scale not given: the % may be the effect or the level left
Rattus norvegicus [8] = assay: Reduction in spontaneous locomotor activity in Sprague-Dawley rat at 2.4 umol/kg, sc measured after 15 to 60 mins relative to saline-treated control; type: functional; set-up: scale not given: the % may be the effect or the level left
Rattus norvegicus [9] = assay: Decrease in 5-HIAA level in Sprague-Dawley rat striatum at 2.4 umol/kg, sc by HPLC analysis relative to saline-treated control; type: functional; set-up: scale not given: the % may be the effect or the level left
Rattus norvegicus [10] = assay: Increase in DOPAC level in Sprague-Dawley rat striatum at 2.4 umol/kg, sc by HPLC analysis relative to saline-treated control; type: functional
Rattus norvegicus [11] = assay: Increase in DOPAC level in Sprague-Dawley rat striatum at 33 umol/kg, sc by HPLC analysis relative to saline-treated control; type: functional
D(2) dopamine receptor [12] = molecular target: T1, D(2) dopamine receptor (Homo sapiens, UniProt P14416); assay: Displacement of [3H]7-OH-DPAT from human high affinity Dopamine D2S receptor by competition binding assay
T1 sequence (P14416 whole entry): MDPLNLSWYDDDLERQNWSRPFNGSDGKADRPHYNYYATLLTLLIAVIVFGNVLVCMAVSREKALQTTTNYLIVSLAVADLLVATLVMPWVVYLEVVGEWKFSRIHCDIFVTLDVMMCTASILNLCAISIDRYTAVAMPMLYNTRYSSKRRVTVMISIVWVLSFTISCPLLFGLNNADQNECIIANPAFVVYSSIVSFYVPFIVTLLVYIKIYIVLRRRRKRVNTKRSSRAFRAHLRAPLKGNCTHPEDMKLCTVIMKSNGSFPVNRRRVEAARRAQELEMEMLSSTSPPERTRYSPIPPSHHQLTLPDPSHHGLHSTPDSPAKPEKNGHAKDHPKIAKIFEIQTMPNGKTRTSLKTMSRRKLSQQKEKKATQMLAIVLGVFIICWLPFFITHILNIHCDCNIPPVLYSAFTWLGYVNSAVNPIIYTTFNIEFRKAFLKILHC

Rattus norvegicus [13] = assay: Decrease in 5-HIAA level in Sprague-Dawley rat striatum at 33 umol/kg, sc by HPLC analysis relative to saline-treated control; type: functional; set-up: scale not given: the % may be the effect or the level left
Rattus norvegicus [14] = assay: Reduction in spontaneous locomotor activity in Sprague-Dawley rat at 33 umol/kg, sc measured after 15 to 60 mins relative to saline-treated control; type: functional; set-up: scale not given: the % may be the effect or the level left
Homo sapiens = species: Homo sapiens; assay: Selectivity ratio of Ki(app) for human low affinity Dopamine D2S receptor to Ki(app) for human high affinity Dopamine D2S receptor
[15] = molecular target: Sodium-dependent serotonin transporter (Homo sapiens, UniProt P31645); assay: Displacement of [3H]imipramine from human SERT expressed in CHO cells by competition binding assay; type: cell-based; details: read-out: Ki(app)
Sequence of Sodium-dependent serotonin transporter (P31645 whole entry): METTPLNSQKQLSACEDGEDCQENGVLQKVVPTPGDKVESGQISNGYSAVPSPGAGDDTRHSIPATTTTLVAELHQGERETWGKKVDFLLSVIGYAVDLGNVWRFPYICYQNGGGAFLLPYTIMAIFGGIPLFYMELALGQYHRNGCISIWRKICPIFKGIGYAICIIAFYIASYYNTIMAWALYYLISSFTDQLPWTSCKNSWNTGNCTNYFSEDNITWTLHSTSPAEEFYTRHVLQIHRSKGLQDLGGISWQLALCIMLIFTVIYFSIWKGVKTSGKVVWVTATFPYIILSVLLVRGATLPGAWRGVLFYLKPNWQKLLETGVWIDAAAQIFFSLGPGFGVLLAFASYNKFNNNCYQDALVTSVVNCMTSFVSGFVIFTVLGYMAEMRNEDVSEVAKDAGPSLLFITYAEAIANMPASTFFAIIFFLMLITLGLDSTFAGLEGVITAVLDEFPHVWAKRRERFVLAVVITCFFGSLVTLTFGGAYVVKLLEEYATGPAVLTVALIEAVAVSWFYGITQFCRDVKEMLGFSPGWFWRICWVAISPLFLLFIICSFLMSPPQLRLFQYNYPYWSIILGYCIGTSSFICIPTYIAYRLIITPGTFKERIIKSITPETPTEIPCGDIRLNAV

[16] = molecular target: 5-hydroxytryptamine receptor 2A (Homo sapiens, UniProt P28223); assay: Displacement of [3H]ketanserin from human 5-HT2A by CEREP assay; details: read-out: Ki(app)
Sequence of 5-hydroxytryptamine receptor 2A (P28223 whole entry): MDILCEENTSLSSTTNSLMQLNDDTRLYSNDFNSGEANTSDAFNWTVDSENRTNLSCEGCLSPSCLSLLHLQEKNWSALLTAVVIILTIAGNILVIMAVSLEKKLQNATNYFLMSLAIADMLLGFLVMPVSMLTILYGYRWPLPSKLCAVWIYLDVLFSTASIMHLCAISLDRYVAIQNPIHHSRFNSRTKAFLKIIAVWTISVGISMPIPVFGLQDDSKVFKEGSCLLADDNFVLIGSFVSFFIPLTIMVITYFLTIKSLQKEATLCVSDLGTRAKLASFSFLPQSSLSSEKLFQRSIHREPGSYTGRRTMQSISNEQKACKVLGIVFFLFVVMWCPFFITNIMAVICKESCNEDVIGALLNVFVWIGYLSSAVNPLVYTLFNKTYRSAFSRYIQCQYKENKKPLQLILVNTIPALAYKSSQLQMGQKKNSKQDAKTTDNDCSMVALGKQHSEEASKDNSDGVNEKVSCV

D(3) dopamine receptor = D(3) dopamine receptor (Homo sapiens, UniProt P35462); assay: Displacement of [3H]7-OH-DPAT from human dopamine D3 receptor by CEREP assay; details: read-out: Ki(app)
Sequence of D(3) dopamine receptor (P35462 whole entry): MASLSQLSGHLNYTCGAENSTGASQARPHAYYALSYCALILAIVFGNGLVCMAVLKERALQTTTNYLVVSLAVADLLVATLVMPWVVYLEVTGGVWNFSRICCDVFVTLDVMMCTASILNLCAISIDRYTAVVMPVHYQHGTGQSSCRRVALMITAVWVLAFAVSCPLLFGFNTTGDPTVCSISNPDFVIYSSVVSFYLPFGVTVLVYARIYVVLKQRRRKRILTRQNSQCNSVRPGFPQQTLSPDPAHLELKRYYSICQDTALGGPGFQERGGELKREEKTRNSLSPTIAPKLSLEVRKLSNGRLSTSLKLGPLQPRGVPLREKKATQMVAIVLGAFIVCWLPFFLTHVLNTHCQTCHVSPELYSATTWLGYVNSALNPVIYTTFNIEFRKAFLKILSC

[17] = molecular target: 5-hydroxytryptamine receptor 6 (Homo sapiens, UniProt P50406); assay: Displacement of [3H]LSD from human 5-HT6 receptor
Sequence of 5-hydroxytryptamine receptor 6 (P50406 whole entry): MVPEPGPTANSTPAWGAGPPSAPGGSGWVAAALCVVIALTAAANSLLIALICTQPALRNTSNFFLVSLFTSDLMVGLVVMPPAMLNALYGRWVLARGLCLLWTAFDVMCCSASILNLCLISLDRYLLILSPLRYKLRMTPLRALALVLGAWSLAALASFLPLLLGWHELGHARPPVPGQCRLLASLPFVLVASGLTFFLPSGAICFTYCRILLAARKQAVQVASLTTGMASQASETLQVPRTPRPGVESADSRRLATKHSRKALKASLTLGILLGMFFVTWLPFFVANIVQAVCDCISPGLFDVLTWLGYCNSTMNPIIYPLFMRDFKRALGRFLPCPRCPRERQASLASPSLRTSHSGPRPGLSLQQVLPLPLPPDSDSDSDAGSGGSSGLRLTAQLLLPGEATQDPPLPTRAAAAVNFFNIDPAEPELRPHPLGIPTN

[18] = molecular target: T2, D(4) dopamine receptor (Homo sapiens) (UniProt P21917); assay: Displacement of [3H]methylspiperone from human dopamine D4 receptor at 1 uM by CEREP assay
T2 sequence (whole entry): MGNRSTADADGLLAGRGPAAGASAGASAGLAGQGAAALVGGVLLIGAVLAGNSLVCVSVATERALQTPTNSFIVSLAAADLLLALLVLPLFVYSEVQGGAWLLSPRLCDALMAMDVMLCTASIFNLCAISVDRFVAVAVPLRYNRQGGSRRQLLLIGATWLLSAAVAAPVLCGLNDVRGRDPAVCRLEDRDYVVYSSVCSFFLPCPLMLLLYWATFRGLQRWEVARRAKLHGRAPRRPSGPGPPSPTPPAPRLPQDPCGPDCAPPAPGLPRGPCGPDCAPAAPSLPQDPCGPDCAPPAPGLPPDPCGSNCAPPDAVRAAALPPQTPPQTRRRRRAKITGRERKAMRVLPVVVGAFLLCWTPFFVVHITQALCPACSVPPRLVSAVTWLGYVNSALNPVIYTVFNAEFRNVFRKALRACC

[19] = molecular target: T3, Amine oxidase [flavin-containing] A (Rattus norvegicus, UniProt P21396); assay: Displacement of [3H]Ro 41-1049 from MAO-A in rat cerebral cortex by competition binding assay; type: tissue-based
T3 sequence (P21396 whole entry): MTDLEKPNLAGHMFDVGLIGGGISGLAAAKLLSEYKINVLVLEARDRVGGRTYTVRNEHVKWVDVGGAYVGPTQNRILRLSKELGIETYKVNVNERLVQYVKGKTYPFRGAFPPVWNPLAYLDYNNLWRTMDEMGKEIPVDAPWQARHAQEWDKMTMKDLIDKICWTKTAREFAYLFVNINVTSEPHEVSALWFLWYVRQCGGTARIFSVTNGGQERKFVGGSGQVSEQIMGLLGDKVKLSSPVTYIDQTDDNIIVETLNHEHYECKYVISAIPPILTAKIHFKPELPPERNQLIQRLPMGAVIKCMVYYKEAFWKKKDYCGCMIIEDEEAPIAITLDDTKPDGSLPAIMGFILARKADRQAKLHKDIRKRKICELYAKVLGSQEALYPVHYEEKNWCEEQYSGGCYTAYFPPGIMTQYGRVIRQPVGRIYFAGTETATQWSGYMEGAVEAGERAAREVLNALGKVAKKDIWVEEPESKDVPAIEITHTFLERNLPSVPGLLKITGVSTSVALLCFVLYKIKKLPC

Rattus norvegicus [20] = assay: Inhibition of d-amphetamine-induced hyperlocomotion in sc dosed Sprague-Dawley rat sc measured after 15 to 60 mins relative to saline-treated control; type: functional
D(2) dopamine receptor [21] = molecular target: T1, D(2) dopamine receptor; assay: Displacement of [3H]methylspiperone from human low affinity Dopamine D2S receptor by competition binding assay
[22] = molecular target: Sodium-dependent dopamine transporter (Homo sapiens) (UniProt Q01959); assay: Displacement of [3H]BTCP from human DAT at 1 uM by CEREP assay
Sequence of Sodium-dependent dopamine transporter (Homo sapiens) (Q01959 whole entry): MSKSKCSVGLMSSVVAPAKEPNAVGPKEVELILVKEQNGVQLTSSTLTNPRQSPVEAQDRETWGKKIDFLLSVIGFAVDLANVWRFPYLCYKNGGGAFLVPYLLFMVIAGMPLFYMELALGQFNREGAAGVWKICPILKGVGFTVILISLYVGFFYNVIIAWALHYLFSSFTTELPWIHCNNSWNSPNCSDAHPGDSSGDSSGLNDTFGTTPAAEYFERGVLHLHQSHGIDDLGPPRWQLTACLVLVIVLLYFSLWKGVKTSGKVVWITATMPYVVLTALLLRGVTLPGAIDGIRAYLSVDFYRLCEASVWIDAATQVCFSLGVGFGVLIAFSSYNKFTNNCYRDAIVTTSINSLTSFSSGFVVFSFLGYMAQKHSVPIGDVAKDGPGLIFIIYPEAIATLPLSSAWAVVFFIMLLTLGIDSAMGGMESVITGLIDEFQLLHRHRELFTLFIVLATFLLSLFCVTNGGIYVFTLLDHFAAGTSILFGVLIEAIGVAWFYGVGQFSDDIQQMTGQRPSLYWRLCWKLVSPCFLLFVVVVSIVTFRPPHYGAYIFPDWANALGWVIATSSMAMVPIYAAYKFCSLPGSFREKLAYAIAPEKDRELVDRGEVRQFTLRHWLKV

[23] = molecular target: T4, Alpha-2A adrenergic receptor (Homo sapiens, UniProt P08913); assay: Displacement of [3H]UK 14.304 from human adrenergic alpha2A receptor; details: read-out: Ki(app)
T4 sequence (P08913 whole entry): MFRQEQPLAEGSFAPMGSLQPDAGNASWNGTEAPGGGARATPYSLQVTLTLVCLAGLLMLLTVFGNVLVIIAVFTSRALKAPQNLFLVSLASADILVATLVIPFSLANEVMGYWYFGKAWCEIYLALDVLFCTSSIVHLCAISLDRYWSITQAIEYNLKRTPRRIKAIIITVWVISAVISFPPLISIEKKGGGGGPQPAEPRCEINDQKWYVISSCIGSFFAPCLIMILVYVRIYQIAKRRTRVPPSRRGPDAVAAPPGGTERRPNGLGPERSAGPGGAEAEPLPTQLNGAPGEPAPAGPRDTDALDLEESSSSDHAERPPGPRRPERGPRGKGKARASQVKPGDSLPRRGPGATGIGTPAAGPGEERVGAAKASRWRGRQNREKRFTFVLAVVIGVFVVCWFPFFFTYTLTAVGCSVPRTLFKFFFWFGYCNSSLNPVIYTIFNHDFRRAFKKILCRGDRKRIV

Rattus norvegicus [24] = assay: Inhibition of MK-801-induced hyperlocomotion in sc dosed Sprague-Dawley rat sc measured after 15 to 60 mins relative to saline-treated control; type: functional
[25] = molecular target: T5, 5-hydroxytryptamine receptor 1A (Homo sapiens, UniProt P08908); assay: Displacement of [3H]8- OH-DPAT from human 5-HT1A by CEREP assay; details: read-out: Ki(app)
T5 sequence (P08908 whole entry): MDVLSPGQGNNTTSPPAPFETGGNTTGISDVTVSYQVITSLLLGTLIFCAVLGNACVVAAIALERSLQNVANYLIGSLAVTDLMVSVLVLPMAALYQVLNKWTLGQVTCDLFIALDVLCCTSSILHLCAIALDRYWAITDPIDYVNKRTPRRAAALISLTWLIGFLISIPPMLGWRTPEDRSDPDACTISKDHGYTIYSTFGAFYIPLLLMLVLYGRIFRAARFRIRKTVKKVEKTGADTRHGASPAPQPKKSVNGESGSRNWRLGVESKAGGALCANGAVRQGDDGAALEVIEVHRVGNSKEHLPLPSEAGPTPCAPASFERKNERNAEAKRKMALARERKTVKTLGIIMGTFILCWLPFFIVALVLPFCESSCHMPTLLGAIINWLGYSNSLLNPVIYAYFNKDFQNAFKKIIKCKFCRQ

Rattus norvegicus [26] = assay: Increase in DOPAC level in Sprague-Dawley rat striatum at 6.4 umol/kg, sc by HPLC analysis relative to saline-treated control; type: functional
Rattus norvegicus [27] = assay: Decrease in 5-HIAA level in Sprague-Dawley rat striatum at 6.4 umol/kg, sc by HPLC analysis relative to saline-treated control; type: functional; set-up: scale not given: the % may be the effect or the level left
Rattus norvegicus [28] = assay: Reduction in spontaneous locomotor activity in Sprague-Dawley rat at 6.4 umol/kg, sc measured after 15 to 60 mins relative to saline-treated control; type: functional; set-up: scale not given: the % may be the effect or the level left
Rattus norvegicus [29] = assay: Decrease in 5-HIAA level in Sprague-Dawley rat striatum at 37 umol/kg, sc by HPLC analysis relative to saline-treated control; type: functional; set-up: scale not given: the % may be the effect or the level left
Rattus norvegicus [30] = assay: Increase in DOPAC level in Sprague-Dawley rat striatum at 37 umol/kg, sc by HPLC analysis relative to saline-treated control; type: functional
Rattus norvegicus [31] = assay: Reduction in spontaneous locomotor activity in Sprague-Dawley rat at 37 umol/kg, sc measured after 15 to 60 mins relative to saline-treated control; type: functional; set-up: scale not given: the % may be the effect or the level left

CN(C)CCCC1(c2ccc(F)cc2)OCc2cc(C#N)ccc21 (configuration not stated) [CITALOPRAM]
Activity (Rattus norvegicus [1]): 69%
Activity (Rattus norvegicus [2]): 101%
ED50 (Rattus norvegicus [3]): inactive
Activity (Rattus norvegicus [4]): 50%

O=c1[nH]c2ccccc2n1C1CCN(CCCC(c2ccc(F)cc2)c2ccc(F)cc2)CC1 [PIMOZIDE]
ED50 (Rattus norvegicus [3]): 1.6 µmol/kg
Activity (Rattus norvegicus [5]): 416%
Activity (Rattus norvegicus [6]): 7.3%
Activity (Rattus norvegicus [7]): 101%

Cc1nc2n(c(=O)c1CCN1CCC(c3noc4cc(F)ccc34)CC1)CCCC2 [RISPERIDONE]
Activity (Rattus norvegicus [8]): 11%
Activity (Rattus norvegicus [9]): 115%
ED50 (Rattus norvegicus [3]): 0.5 µmol/kg
Activity (Rattus norvegicus [10]): 347%

CCCN1CCC(n2c(=O)[nH]c3cc(Cl)ccc32)CC1
Activity (Rattus norvegicus [11]): 334%
Ki (D(2) dopamine receptor [12]): 0.456 µM
Activity (Rattus norvegicus [13]): 101%
Activity (Rattus norvegicus [14]): 54%
Ratio Ki(app) (Homo sapiens): 0.8
Ki [15]: 3.51 µM
Ki [16]: 21.6 µM
Ki (D(3) dopamine receptor): 2.52 µM
IC50 [17]: > 580 µM
inhibition [18]: 17%
ED50 (Rattus norvegicus [3]): 7 µmol/kg
IC50 [19]: > 580 µM
inhibition (INH) (Rattus norvegicus [20]): 4%
Ki (D(2) dopamine receptor [21]): 0.371 µM
inhibition [22]: 15%
Ki [23]: 17.2 µM
inhibition (INH) (Rattus norvegicus [24]): 42%
Ki [25]: 5.71 µM

O=C1Cc2cc(CCN3CCN(c4nsc5ccccc45)CC3)c(Cl)cc2N1 [ZIPRASIDONE]
Activity (Rattus norvegicus [26]): 311%
Activity (Rattus norvegicus [27]): 98%
Activity (Rattus norvegicus [28]): 13%
ED50 (Rattus norvegicus [3]): 1.2 µmol/kg

O=C(NCCN1CCOCC1)c1ccc(Cl)cc1 [MOCLOBEMIDE]
Activity (Rattus norvegicus [29]): 81%
Activity (Rattus norvegicus [30]): 18%
Activity (Rattus norvegicus [31]): 164%
